According to patent US20220362223A1, “ORAL FORMULATION OF X842” (Cinclus Pharma Holding AB, priority 2019, published 2022):
In brackets after ≈: the same amount, converted by molar mass.

Tests used:
[1] = Solubility of X842 in water; type: physicochemical
From the text: The solubility of X842 is very low. […] This low solubility is problematic for solid oral formulations, and especially for solid immediate release formulations where the active ingredient should dissolve in only a short time period.

gastric acid production [2] = experiment: Clinical Phase I study of X842: intragastric pH / gastric acid control; type: in vivo, human
Experimental: (§1) X842 is a prodrug of linaprazan, which was disclosed in WO 99/55706 and previously studied in Phase I and II studies. […] A clinical Phase I study has shown that administration of a single dose of X842 can maintain the intragastric acidity above pH 4 for 24 hours. X842 is therefore tailored for patients with severe erosive gastroesophageal reflux disease (eGERD).
(§2) It is estimated that this requires a minimal plasma concentration (Cmin) of linaprazan of at least about 240 nmol/L after 22 hours. At such doses, a once daily administration of the formulation would be sufficient. Therefore, in another embodiment, the invention relates to a formulation as disclosed herein, wherein the formulation provides a Cmin of linaprazan in a human of at least about 240 nmol/L after 22 hours following administration of the oral formulation to said human. In a preferred embodiment, the invention relates to a formulation as disclosed herein, wherein a unit dose of the formulation provides a Cmin of linaprazan in a human of at least about 240 nmol/L after 22 hours following administration of the oral formulation to said human.

clinical = experiment: clinical; set-up: species or system human; conditions: in vivo
Experimental: as §1, §2

gastric acid production [3] = conditions: Phase I and II studies; cited from earlier work

In the case of `Cc1cccc(C)c1CNc1cc(C(=O)NCCOC(=O)CCCC(=O)O)cn2c(C)c(C)nc12` [Example X842, 5-{2[({8-[(2,6-dimethylbenzyl)amino]-2,3-dimethylimidazo[1,2-a]pyridine-6-yl}carbonyl)-amino]ethoxy}-5-oxopentanoic acid], the solubility in water ([1]; pH 6.8) is reported as “practically insoluble”, the solubility ([1]; water, simulated gastric fluid, pH 1.0) is reported as roughly 113 µg/mL (≈ 235 µM) and the “control of gastric acid production” value (gastric acid production [2]; compared to linaprazan) is reported as “total control of the gastric acid production for a longer time”. The “time intragastric acidity is maintained above pH 4” value (gastric acid production [2]; single dose, clinical Phase I) was 24 hours, the “half-life in the body” value (clinical; human) was “longer half-life” and the “metabolism after absorption into the blood stream” value (clinical) was “quickly metabolized into linaprazan”. The “plasma concentration of X842” value (clinical) was “only very low and difficult to determine”.

In the case of `Cc1cccc(C)c1CNc1cc(C(=O)NCCO)cn2c(C)c(C)nc12` [linaprazan], the concentration at 22 h (clinical; human) is listed as no less than 240 nM, the “duration of acid inhibition” value (gastric acid production [3]) is listed as “too short duration of acid inhibition” and the “elimination from the body” value (gastric acid production [3]) is listed as “quickly eliminated from the body”. The “onset of action / effect at first dose” value (gastric acid production [3]) was “fast onset of action and full effect at first dose” and the tolerability (gastric acid production [3]) was “well tolerated”.
